Patent publication US9567319B2, “Compound having higher inhibitory activity on protein kinase G and preparation method thereof” (Jenkem Technology Co., Ltd., (Tianjin), priority 2014, dated 2017)

Experiment: Test of water solubility of the compounds
Conditions: for Volume of added water: about 0.1 g sample, water added until dissolved; for water solubility, times higher than that of compound 46: relative to compound 46 (parent compound); for solubility: water
Experimental: At room temperature, about 0.1 g of each sample to be tested (solid materials should be ground as powder) was added to a 10 mL cylinder with a ground glass stopper. Water was gradually added. After each addition of 0.5 mL water, the resulting solution was stirred for 10 min for mixing, and was then visually examined for the presence of any undissolved sample. If there still exists undissolved sample or undissolved portions of the sample after 10 mL water was added, the test would be continued in a 100 mL cylinder.

Volume of added water (room temperature) [mL] | solubility (thermodynamic from solid) [µg/mL] | Compound | water solubility, times higher than that of compound 46 | solubility (room temperature) [µg/mL]
12.5 | 8000 | COc1ccc(OCCOCCO)c(C(=O)c2ccc(C(=O)N[C@@H]3CNC[C@H]3NC(=O)c3ccc4cn[nH]c4c3)cc2)c1F.Cl [JK-M02H, (3R,4R)-3-{4-[2-fluoro-3-methoxy-6-(5-hydroxy-3-oxapentan-1-oxy)]benzoyl}benzamido-4-(1H-indazole-6-carboxamido)pyrrolidine hydrochloride] |  | 
22.0 | 4500 | CCCOCCOCCOc1ccc(OC)c(F)c1C(=O)c1ccc(C(=O)N[C@@H]2CNC[C@H]2NC(=O)c2ccc3cn[nH]c3c2)cc1.Cl [JK-M02P, (3R,4R)-3-{4-[2-fluoro-3-methoxy-6-(4,7-dioxanonan-9-oxy)]benzoyl}benzamido-4-(1H-indazole-6-carboxamido)pyrrolidine hydrochloride] |  | 

The next lines start with the compound.

Compound | Volume of added water (room temperature) [mL] | solubility (thermodynamic from solid) [µg/mL] | water solubility, times higher than that of compound 46 | solubility (room temperature) [µg/mL]
CCCOCCOCCOc1ccc(F)c(F)c1C(=O)c1ccc(C(=O)N[C@@H]2CNC[C@H]2NC(=O)c2ccc3cn[nH]c3c2)cc1.Cl [JK-02P, (3R,4R)-3-{4-[2,3-difluoro-6-(3,6-dioxanonan-1-oxy)]benzoyl}benzamido-4-(1H-indazole-6-carboxamido)pyrrolidine hydrochloride] | 22.5 | 4400 | about 3 times | 
COCCOCCOCCOc1ccc(F)c(F)c1C(=O)c1ccc(C(=O)N[C@@H]2CNC[C@H]2NC(=O)c2ccc3cn[nH]c3c2)cc1.Cl [JK-03M, (3R,4R)-3-{4-[2,3-difluoro-6-(2,5,8-trioxadecan-10-oxy)]benzoyl}benzamido-4-(1H-indazole-6-carboxamido)pyrrolidine hydrochloride] | 16.5 |  | about 4 times | 6100
COCCOCCOCCOCCOCCOCCOCCOc1ccc(OC)c(F)c1C(=O)c1ccc(C(=O)N[C@@H]2CNC[C@H]2NC(=O)c2ccc3cn[nH]c3c2)cc1.Cl [JK-M07M, (3R,4R)-3-{4-[2-fluoro-3-methoxy-6-(2,5,8,11,14,17,20-heptaoxadocosan-22-oxy)]benzoyl}benzamido-4-(1H-indazole-6-carboxamido)pyrrolidine hydrochloride] | 7.5 |  |  | 13300
